One data set concerns SF268. In words: monolayer proliferation assay (modified propidium iodide assay), SF268. It counts as cell-based, human. To be noted: 4 days exposure, median of duplicate experiments. Here is the method:
(§1) In vitro evaluation of compounds for anticancer activity in a panel of 38 human tumour cell lines in a monolayer proliferation assay was carried out at the Oncotest Testing Facility, Institute for Experimental Oncology, Oncotest GmbH, Freiburg.
(§2) The Oncotest cell lines are established from human tumor xenografts as described by Roth et al., (1999). The origin of the donor xenografts was described by Fiebig et al., (1999). Other cell lines are either obtained from the NCl (H460, SF-268, OVCAR-3, DU145, MDA-MB-231, MDA-MB-468) or purchased from DSMZ, Braunschweig, Germany (LNCAP).
(§3) All cell lines, unless otherwise specified, were grown at 37° C. in a humidified atmosphere (95% air, 5% CO2) in a ‘ready-mix’ medium containing RPMI 1640 medium, 10% fetal calf serum, and 0.1 mg/mL gentamicin (PAA, Cölbe, Germany).
(§4) A modified propidium iodide assay was used to assess the effects of the test compound(s) on the growth of human tumour cell lines (Dengler et al., (1995)).
(§5) Briefly, cells were harvested from exponential phase cultures by trypsinization, counted and plated in 96 well flat-bottomed microtitre plates at a cell density dependent on the cell line (5-10.000 viable cells/well). After 24 h recovery to allow the cells to resume exponential growth, 0.010 mL of culture medium (6 control wells per plate) or culture medium containing a 21-deoxymacbecin analogue was added to the wells. Each concentration was plated in triplicate. […] Following 4 days of continuous exposure, cell culture medium with or without test compound was replaced by 0.2 mL of an aqueous propidium iodide (PI) solution (7 mg/L). To measure the proportion of living cells, cells were permeabilized by freezing the plates. After thawing the plates, fluorescence was measured using the Cytofluor 4000 microplate reader (excitation 530 nm, emission 620 nm), giving a direct relationship to the total number of viable cells.
(§6) Growth inhibition was expressed as treated/control×100 (% T/C). For active compounds, IC70 values were estimated by plotting compound concentration versus cell viability.
(§7) In vitro evaluation of the test compounds for anticancer activity in a panel of human tumour cell lines in a monolayer proliferation assay was carried out as described in the general methods using a modified propidium iodide assay.

The subject of another data set is 251L. Put plainly: monolayer proliferation assay (modified propidium iodide assay), 251L. It counts as cell-based, human. To be noted: 4 days exposure, median of duplicate experiments. Here is the method: as §1, §2, §3, §4, §5, §6, §7
Another data set relates to H460. In words: monolayer proliferation assay (modified propidium iodide assay), H460. It counts as cell-based, human. To be noted: 4 days exposure, median of duplicate experiments. Here is the method: as §1, §2, §3, §4, §5, §6, §7
A further data set concerns MCF7. In words: monolayer proliferation assay (modified propidium iodide assay), MCF7. To be noted: 4 days exposure, median of duplicate experiments. It counts as cell-based, human. Here is the method: as §1, §2, §3, §4, §5, §6, §7
A further data set has as its system 394NL. In words: monolayer proliferation assay (modified propidium iodide assay), 394NL. It counts as cell-based, human. To be noted: 4 days exposure, median of duplicate experiments. Here is the method:
as §1, §2, §3, §4, §5, §6, §7

In another data set the test system is OVCAR3. Put plainly: monolayer proliferation assay (modified propidium iodide assay), OVCAR3. To be noted: 4 days exposure, median of duplicate experiments. It counts as cell-based, human. As to the method: as §1, §2, §3, §4, §5, §6, §7
For the next data set, the system named is DU145. In words: monolayer proliferation assay (modified propidium iodide assay), DU145. To be noted: 4 days exposure, median of duplicate experiments. It counts as cell-based, human. Here is the method: as §1, §2, §3, §4, §5, §6, §7
Another data set concerns LNCAP. In words: monolayer proliferation assay (modified propidium iodide assay), LNCAP. To be noted: 4 days exposure, median of duplicate experiments. In kind it is cell-based, human. Here is the method: as §1, §2, §3, §4, §5, §6, §7
A further data set has as its system 1138L. Put plainly: monolayer proliferation assay (modified propidium iodide assay), 1138L. To be noted: 4 days exposure, median of duplicate experiments. In kind it is cell-based, human. Here is the method:
as §1, §2, §3, §4, §5, §6, §7

Another data set is described as follows: Solubility assay. In kind it is physicochemical. To be noted: aqueous buffer, kinetic from dmso stock; 2% DMSO in PBS pH 7.3; shaken up to six hours; maximum measurable 0.5 mM. As to the method: Solutions (25 mM) of the test compounds were prepared by dissolving 3-5 mg aliquots in the appropriate amount of DMSO.
Aliquots (0.01 mL) were added to 0.490 mL of pH 7.3 PBS in glass vials. For each time point, 3 PBS vials were prepared in amber glass vials. For the six hour time point triplicate aliquots in DMSO were also prepared.
The resulting 0.5 mM solutions were shaken for up to six hours, with vials removed for analysis at 1, 3 and 6 hours. Samples were analysed by HPLC (0.025 mL injections).
Solubility in 2% DMSO in PBS at each time point was determined by comparing total peak areas for each chromatogram with mean total peak area for chromatograms produced from the corresponding 6 hour DMSO solutions. (Mean total peak area in DMSO solutions was assumed to be equivalent to a 0.5 mM solution).

A further data set concerns the target Yeast Hsp90 (Saccharomyces cerevisiae, UniProt P02829). Put plainly: Hsp90 binding, isothermal titration calorimetry. As to the method:
Yeast Hsp90 was dialysed against 20 mM Tris pH 7.5 containing 1 mM EDTA and 5 mM NaCl and then diluted to 0.008 mM in the same buffer, but containing 2% DMSO. The test compounds were dissolved in 100% DMSO at a concentration of 50 mM and subsequently diluted to 0.1 mM in the same buffer as for Hsp90 with 2% DMSO. Heats of interaction were measured at 30° C. on a MSC system (Microcal), with a cell volume of 1.458 mL. 10 aliquots of 0.027 mL of 0.100 mM of each test compound were injected into 0.008 mM yeast Hsp90. Heats of dilution were determined in a separate experiment by injecting the test compound into buffer containing 2% DMSO, and the corrected data fitted using a nonlinear least square curve-fitting algorithm (Microcal Origin) with three floating variables: stoichiometry, binding constant and change in enthalpy of interaction.
In general terms: ITC needs no label: the signal is the heat of the interaction.

The next data set deals with Hsp90 (Homo sapiens, UniProt P07900). To be noted: cited from earlier work.
The test system of a further data set is Reverse transcriptase. To be noted: Ono et al., 1982; cited from earlier work.
The target of data set [1] is terminal deoxynucleotidyl transferase (Homo sapiens, UniProt P04053). To be noted: Ono et al., 1982; cited from earlier work.
Setting [2] is: yeast Hsp90, ITC at 30° C., 2% DMSO, read-out: Kd values for Hsp90 binding.

Converted amounts (≈) assume the structure as drawn. Like-named read-outs stand apart in the source and are kept apart here.

Chain of Yeast Hsp90 (P02829 whole entry): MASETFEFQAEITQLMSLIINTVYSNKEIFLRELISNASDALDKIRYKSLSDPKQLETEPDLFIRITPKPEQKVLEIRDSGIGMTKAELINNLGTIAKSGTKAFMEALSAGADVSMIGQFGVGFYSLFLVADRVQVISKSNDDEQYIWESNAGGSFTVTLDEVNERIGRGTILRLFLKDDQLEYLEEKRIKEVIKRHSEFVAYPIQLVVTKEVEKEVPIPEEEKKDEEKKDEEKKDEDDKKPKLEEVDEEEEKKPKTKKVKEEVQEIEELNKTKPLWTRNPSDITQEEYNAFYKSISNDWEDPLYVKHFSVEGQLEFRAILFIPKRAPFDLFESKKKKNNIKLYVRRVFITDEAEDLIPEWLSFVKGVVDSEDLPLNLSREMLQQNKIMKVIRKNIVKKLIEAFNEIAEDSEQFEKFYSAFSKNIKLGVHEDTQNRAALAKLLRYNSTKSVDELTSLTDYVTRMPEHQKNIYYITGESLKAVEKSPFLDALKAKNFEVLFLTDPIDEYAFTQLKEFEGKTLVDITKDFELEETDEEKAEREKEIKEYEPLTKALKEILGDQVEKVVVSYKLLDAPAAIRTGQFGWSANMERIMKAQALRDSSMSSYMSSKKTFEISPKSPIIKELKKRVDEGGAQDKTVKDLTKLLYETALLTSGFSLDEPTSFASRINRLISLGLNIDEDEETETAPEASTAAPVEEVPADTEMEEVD
Chain of terminal deoxynucleotidyl transferase (P04053 whole entry, species assumed): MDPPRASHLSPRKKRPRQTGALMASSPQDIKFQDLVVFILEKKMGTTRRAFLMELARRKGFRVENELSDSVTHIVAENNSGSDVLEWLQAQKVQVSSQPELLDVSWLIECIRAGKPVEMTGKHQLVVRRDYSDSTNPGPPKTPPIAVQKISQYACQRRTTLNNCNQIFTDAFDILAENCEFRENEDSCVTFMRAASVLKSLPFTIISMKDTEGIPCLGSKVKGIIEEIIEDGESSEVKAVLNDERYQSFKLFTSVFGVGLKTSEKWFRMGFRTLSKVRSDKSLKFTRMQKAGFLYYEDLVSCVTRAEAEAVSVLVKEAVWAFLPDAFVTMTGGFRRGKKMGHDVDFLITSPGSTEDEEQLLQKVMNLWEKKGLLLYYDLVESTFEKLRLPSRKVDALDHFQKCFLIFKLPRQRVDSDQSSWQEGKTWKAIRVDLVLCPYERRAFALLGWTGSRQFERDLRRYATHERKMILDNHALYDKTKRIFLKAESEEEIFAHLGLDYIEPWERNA

`CO[C@H]1C[C@H](C)Cc2cc(O)cc(c2)NC(=O)/C(C)=C/CC[C@H](C)[C@@H](OC(N)=O)/C(C)=C/[C@H](C)[C@H]1O` [Compound 14, 7-O-carbamoylpre-macbecin]: the “Test/Control (%) at drug concentration” value amounted to 18% in the data set with SF268 (1 μg/mL); 16% with SF268 (10 μg/mL); 18% in the data set with 251L (1 μg/mL); 16% in the data set with 251L (10 μg/mL); 3% in the data set with H460 (1 μg/mL); 4% in the data set on H460 (10 μg/mL). In addition, the “Test/Control (%) at drug concentration” value in the data set on MCF7 (1 μg/mL) is 11%; in the data set on MCF7 (10 μg/mL), 9%; in the data set on 394NL (1 μg/mL), 14%; with 394NL (10 μg/mL) it was 13%; in the data set on OVCAR3 (1 μg/mL), 27%; with OVCAR3 (10 μg/mL), 28%. For the same compound, the “Test/Control (%) at drug concentration” value was 8% in the data set with DU145 (1 μg/mL); 6% in the data set with DU145 (10 μg/mL); 13% in the data set with LNCAP (1 μg/mL); 12% with LNCAP (10 μg/mL); 13% in the data set with 1138L (1 μg/mL); 14% in the data set on 1138L (10 μg/mL). Besides, in the data set “Solubility assay”, the solubility is not below 500 µM. The Kd at Yeast Hsp90 (setting [2]) was 3.2 nM.
In the case of `CO[C@H]1C[C@H](C)[C@@H](O)c2cc(O)cc(c2)NC(=O)/C(C)=C/CC[C@H](C)[C@@H](OC(N)=O)/C(C)=C/[C@H](C)[C@H]1O` [Compound 15, 7-O-carbamoyl-15-hydroxypre-macbecin], the “Test/Control (%) at drug concentration” value was 95% in the data set on SF268 (1 μg/mL); 27% with SF268 (10 μg/mL); 86% in the data set with 251L (1 μg/mL); 29% in the data set on 251L (10 μg/mL); 87% in the data set on H460 (1 μg/mL); 23% in the data set on H460 (10 μg/mL). The “Test/Control (%) at drug concentration” value stood at 99% with MCF7 (1 μg/mL); 19% with MCF7 (10 μg/mL); 75% with 394NL (1 μg/mL); 18% with 394NL (10 μg/mL); 100% in the data set on OVCAR3 (1 μg/mL); 41% in the data set with OVCAR3 (10 μg/mL). In addition, the “Test/Control (%) at drug concentration” value was found to be 99% with DU145 (1 μg/mL); 18% in the data set with DU145 (10 μg/mL); 58% in the data set with LNCAP (1 μg/mL); 16% in the data set with LNCAP (10 μg/mL); 101% in the data set on 1138L (1 μg/mL); 25% with 1138L (10 μg/mL). The solubility in “Solubility assay” was not below 500 µM. Further, the dissociation constant (Kd) on Yeast Hsp90 (setting [2]) stood at 6 nM.
Regarding `CO[C@H]1C[C@H](C)Cc2cc(O)cc(c2)NC(=O)/C=C/CC[C@H](OC)[C@@H](OC(N)=O)/C(C)=C/[C@H](C)[C@H]1O` [KOSN1559], the “binding affinity to Hsp90, greater than 17-AAG” value on Hsp90 (relative to 17-AAG) is on record as 8 fold. The “binding affinity to Hsp90, greater than geldanamycin” value on Hsp90 (relative to geldanamycin) is 4 fold.
Take `CO[C@H]1[C@@H](OC)C[C@H](C)[C@@H](OC)C2=CC(=O)C=C(NC(=O)/C(C)=C/C=C\[C@H](C)[C@@H](OC(N)=O)/C(C)=C/[C@@H]1C)C2=O` [macbecin]: the “Test/Control (%) at drug concentration” value is given as 40% with SF268 (1 μg/mL); 6% with SF268 (10 μg/mL); 58% in the data set on 251L (1 μg/mL); 44% in the data set on 251L (10 μg/mL); 62% with H460 (1 μg/mL); 25% with H460 (10 μg/mL). The “Test/Control (%) at drug concentration” value in the data set on MCF7 (1 μg/mL) was determined as 42%; with MCF7 (10 μg/mL), 19%; with 394NL (1 μg/mL) it was 16%; in the data set on 394NL (10 μg/mL), 13%; in the data set on OVCAR3 (1 μg/mL), 54%; with OVCAR3 (10 μg/mL), 11%. Besides, the “Test/Control (%) at drug concentration” value is 13% with DU145 (1 μg/mL); 5% in the data set with DU145 (10 μg/mL); 34% in the data set with LNCAP (1 μg/mL); 32% in the data set with LNCAP (10 μg/mL); 71% with 1138L (1 μg/mL); 31% in the data set on 1138L (10 μg/mL). In addition, in “Solubility assay”, the solubility was 81 µM (≈ 45.3 µg/mL). Also, at Yeast Hsp90, binding was put at a Kd of 240 nM. Also, the “Reverse transcriptase activity inhibition” value in the data set on Reverse transcriptase is reported as “not inhibited”. For the same compound, in data set [1], the “terminal deoxynucleotidyl transferase activity inhibition” value was “not inhibited”.

One may read the solubility as the dissolved amount per volume that the medium holds. Lower therefore signals little dissolved substance. As a reminder, the Kd is the equilibrium constant for the complex coming apart.

The values above are taken from patent US20090209494A1, “21-DEOXYMACBECIN ANALOGUES USEFUL AS ANTITUMOR AGENTS” (priority 2005, published 2009).
